According to doi:10.1101/2021.09.30.462449v1 (biorxiv, 2021):

Assays:
Assay in all cases: biochemical
Conditions in all cases: read-out: % inhibition mean (Lanthascreen)
AMPK (A2/B2/G1) = AMPK (A2/B2/G1) (Homo sapiens, UniProt P54646)
AMPK (A2/B2/G2) = AMPK (A2/B2/G2) (Homo sapiens, UniProt P54646)
CASK = CASK (Homo sapiens, UniProt O14936)
CDC7/DBF4 = CDC7/DBF4 (Homo sapiens, UniProt O00311)
CDK2/cyclin O = CDK2/cyclin O (Homo sapiens, UniProt P24941)
CDK9/cyclin K = CDK9/cyclin K (Homo sapiens, UniProt P50750)
DAPK2 = DAPK2 (Homo sapiens, UniProt Q9UIK4)
DDR2 T654M = DDR2 T654M (Homo sapiens, UniProt Q16832, T654M)
EPHA3 = EPHA3 (Homo sapiens, UniProt P29320)
FGFR3 G697C = FGFR3 G697C (Homo sapiens, UniProt P22607, G697C)
GRK1 = GRK1 (Homo sapiens, UniProt Q15835)
HUNK = HUNK (Homo sapiens, UniProt P57058)
LATS2 = LATS2 (Homo sapiens, UniProt Q9NRM7)
MAP2K1 (MEK1) = MAP2K1 (MEK1) (Homo sapiens, UniProt Q02750)
MAP2K2 (MEK2) = MAP2K2 (MEK2) (Homo sapiens, UniProt P36507)
MAP3K2 (MEKK2) = MAP3K2 (MEKK2) (Homo sapiens, UniProt Q9Y2U5)
[1] = target: MAP3K7/MAP3K7IP1 (TAK1-TAB1) (Homo sapiens, UniProt O43318)
MAP4K3 (GLK) = MAP4K3 (GLK) (Homo sapiens, UniProt Q8IVH8)
MLK4 = MLK4 (Homo sapiens, UniProt Q5TCX8)
MYLK (MLCK) = MYLK (MLCK) (Homo sapiens, UniProt Q15746)
PLK4 = PLK4 (Homo sapiens, UniProt O00444)
PRKACB (PRKAC beta) = PRKACB (PRKAC beta) (Homo sapiens, UniProt P22694)
SLK = SLK (Homo sapiens, UniProt Q9H2G2)
STK32B (YANK2) = STK32B (YANK2) (Homo sapiens, UniProt Q9NY57)
STK38L (NDR2) = STK38L (NDR2) (Homo sapiens, UniProt Q9Y2H1)
ULK2 = ULK2 (Homo sapiens, UniProt Q8IYT8)
ULK3 = ULK3 (Homo sapiens, UniProt Q6PHR2)
VRK2 = VRK2 (Homo sapiens, UniProt Q86Y07)
WNK1 = WNK1 (Homo sapiens, UniProt Q9H4A3)

Sequence of AMPK (A2/B2/G1) (P54646 whole entry): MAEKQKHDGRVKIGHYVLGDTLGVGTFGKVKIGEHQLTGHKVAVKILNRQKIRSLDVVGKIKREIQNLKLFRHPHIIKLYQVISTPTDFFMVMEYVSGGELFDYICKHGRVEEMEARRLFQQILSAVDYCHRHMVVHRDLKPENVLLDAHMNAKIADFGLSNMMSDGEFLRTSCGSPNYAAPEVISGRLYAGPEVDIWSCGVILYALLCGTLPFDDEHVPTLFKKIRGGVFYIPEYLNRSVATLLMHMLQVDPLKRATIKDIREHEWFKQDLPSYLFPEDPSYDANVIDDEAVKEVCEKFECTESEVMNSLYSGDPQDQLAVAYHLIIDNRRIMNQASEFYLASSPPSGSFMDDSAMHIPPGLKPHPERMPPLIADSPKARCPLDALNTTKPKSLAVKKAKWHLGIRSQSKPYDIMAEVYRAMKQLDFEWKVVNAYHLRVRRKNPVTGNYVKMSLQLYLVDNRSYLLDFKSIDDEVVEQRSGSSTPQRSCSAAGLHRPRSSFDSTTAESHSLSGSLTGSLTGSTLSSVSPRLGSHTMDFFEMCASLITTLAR
Sequence of AMPK (A2/B2/G1) (O43741 whole entry partner): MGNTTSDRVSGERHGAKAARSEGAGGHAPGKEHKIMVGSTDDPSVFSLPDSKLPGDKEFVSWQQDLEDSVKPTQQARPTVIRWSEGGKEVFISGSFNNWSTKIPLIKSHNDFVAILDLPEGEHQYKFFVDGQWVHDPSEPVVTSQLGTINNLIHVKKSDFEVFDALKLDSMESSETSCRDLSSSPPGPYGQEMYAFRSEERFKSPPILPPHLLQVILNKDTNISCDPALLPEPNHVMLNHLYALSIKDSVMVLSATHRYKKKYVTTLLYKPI
Sequence of AMPK (A2/B2/G1) (P54619 whole entry partner): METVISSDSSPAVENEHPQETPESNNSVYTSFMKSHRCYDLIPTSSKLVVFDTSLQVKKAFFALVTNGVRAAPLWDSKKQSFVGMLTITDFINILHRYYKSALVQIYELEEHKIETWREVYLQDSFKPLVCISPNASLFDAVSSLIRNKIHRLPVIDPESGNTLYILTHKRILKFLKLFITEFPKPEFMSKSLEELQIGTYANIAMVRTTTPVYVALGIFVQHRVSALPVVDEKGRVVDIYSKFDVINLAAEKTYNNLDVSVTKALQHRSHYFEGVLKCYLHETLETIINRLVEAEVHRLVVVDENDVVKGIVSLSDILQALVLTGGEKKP
Sequence of AMPK (A2/B2/G2) (P54646 whole entry): as the sequence (P54646 whole entry) above
Sequence of AMPK (A2/B2/G2) (O43741 whole entry partner): as the sequence (O43741 whole entry partner) above
Sequence of AMPK (A2/B2/G2) (Q9UGJ0 whole entry partner): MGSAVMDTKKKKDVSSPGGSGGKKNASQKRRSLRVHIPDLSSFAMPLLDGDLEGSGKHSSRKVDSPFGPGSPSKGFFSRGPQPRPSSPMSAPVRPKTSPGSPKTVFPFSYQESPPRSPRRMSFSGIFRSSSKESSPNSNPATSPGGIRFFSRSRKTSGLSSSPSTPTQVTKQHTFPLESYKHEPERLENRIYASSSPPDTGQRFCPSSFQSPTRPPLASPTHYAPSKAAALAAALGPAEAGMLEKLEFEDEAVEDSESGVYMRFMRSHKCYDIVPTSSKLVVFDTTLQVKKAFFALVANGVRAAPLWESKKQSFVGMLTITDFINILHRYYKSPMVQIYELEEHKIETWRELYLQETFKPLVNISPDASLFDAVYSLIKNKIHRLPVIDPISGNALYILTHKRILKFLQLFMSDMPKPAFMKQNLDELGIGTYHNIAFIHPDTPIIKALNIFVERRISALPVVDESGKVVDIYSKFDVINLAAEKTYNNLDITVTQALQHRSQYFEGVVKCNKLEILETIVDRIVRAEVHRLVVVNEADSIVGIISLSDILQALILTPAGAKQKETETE
Sequence of HUNK (P57058 whole entry): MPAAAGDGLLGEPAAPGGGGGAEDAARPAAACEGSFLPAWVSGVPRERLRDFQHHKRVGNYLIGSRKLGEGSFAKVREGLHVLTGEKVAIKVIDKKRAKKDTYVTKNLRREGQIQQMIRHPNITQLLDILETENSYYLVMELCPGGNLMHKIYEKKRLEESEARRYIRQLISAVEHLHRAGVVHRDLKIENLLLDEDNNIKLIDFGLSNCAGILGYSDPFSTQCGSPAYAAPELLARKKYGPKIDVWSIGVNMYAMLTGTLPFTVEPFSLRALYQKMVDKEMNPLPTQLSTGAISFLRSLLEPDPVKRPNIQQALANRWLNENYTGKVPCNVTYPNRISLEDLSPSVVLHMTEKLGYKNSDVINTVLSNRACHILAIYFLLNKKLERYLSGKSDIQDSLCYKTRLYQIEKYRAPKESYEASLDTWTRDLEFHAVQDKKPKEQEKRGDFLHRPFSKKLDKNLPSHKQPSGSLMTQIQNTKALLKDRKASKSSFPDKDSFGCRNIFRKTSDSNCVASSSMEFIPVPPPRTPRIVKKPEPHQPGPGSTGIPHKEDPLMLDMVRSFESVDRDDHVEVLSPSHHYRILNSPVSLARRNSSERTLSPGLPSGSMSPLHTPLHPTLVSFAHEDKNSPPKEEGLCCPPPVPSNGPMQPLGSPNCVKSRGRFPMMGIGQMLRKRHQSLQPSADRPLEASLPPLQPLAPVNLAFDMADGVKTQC
Sequence of MAP4K3 (GLK) (Q8IVH8 whole entry): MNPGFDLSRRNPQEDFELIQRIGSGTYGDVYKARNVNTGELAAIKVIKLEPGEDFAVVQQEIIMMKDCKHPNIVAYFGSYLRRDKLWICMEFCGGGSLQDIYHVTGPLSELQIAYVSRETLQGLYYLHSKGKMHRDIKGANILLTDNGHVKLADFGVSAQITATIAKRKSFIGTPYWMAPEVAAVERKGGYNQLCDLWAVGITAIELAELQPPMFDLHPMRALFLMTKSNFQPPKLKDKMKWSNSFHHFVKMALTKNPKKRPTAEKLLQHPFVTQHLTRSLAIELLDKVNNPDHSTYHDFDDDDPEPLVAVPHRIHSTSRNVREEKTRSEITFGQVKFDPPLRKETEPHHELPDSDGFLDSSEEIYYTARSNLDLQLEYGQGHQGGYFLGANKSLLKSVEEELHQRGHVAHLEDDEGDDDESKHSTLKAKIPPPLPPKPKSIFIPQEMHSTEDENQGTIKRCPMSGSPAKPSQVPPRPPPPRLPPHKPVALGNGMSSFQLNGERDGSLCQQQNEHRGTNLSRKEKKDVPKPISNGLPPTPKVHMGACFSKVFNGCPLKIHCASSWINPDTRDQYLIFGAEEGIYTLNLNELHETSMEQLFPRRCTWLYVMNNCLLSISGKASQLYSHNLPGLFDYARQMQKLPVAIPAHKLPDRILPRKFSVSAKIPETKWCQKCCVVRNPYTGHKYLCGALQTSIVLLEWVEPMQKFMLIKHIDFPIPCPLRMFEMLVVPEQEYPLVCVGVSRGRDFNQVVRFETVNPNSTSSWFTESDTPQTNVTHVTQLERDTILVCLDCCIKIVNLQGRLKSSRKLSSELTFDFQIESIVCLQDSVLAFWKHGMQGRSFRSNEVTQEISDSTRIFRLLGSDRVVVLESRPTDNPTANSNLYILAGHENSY
Sequence of PLK4 (O00444 whole entry): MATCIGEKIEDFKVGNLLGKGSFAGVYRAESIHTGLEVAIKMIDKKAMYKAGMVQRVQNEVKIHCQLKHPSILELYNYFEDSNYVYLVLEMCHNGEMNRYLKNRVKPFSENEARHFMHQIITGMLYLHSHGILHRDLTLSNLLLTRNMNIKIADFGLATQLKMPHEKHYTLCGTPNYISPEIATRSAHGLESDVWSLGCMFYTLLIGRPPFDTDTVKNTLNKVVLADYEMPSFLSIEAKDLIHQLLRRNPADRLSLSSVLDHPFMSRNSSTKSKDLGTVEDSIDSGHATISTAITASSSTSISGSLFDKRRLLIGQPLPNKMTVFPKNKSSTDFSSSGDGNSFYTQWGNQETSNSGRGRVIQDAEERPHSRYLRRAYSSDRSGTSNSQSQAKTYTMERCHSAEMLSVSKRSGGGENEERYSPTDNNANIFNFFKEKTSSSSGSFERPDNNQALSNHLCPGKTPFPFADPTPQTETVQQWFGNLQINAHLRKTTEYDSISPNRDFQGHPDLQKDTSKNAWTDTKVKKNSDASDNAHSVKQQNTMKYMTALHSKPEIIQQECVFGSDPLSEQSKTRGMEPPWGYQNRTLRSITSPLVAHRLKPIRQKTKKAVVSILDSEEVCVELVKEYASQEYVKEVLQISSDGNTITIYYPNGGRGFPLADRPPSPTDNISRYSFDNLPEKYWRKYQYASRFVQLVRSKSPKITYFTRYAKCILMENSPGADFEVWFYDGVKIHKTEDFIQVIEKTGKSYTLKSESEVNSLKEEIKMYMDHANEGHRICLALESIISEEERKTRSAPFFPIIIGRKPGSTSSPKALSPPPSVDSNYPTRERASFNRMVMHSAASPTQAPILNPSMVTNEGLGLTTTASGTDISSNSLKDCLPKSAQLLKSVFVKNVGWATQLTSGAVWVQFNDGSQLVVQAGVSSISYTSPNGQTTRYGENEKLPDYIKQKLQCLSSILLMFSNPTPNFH
Sequence of MAP2K2 (MEK2) (P36507 whole entry): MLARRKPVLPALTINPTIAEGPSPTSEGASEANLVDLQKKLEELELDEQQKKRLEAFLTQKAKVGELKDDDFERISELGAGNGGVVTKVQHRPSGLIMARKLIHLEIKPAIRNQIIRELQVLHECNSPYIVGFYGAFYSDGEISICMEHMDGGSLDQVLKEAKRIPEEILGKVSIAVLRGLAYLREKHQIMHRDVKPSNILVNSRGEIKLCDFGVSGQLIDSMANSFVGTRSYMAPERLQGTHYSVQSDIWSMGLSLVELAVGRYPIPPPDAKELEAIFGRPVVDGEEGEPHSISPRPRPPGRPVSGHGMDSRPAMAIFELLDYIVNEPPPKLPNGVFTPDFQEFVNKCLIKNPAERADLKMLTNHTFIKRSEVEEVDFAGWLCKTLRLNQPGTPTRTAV

COc1ccc2nc3cc(Cl)ccc3c(Nc3cc(CN4CCCC4)c(O)c(CN4CCCC4)c3)c2n1 [Pyronaridine, 4-[(7-Chloro-2-methoxybenzo[b][1,5]naphthyridin-10-yl)amino]-2,6-bis(1-pyrrolidinylmethyl)phenol phosphate (1:4)]
inhibition at 1 µM (AMPK (A2/B2/G1)): 6% | inhibition at 1 µM (AMPK (A2/B2/G2)): 3% | inhibition at 1 µM (CASK): 2% | inhibition at 1 µM (CDC7/DBF4): -6% | inhibition at 1 µM (CDK2/cyclin O): 2% | inhibition at 1 µM (CDK9/cyclin K): 5% | inhibition at 1 µM (DAPK2): -6% | inhibition at 1 µM (DDR2 T654M): -11% | inhibition at 1 µM (EPHA3): 11% | inhibition at 1 µM (FGFR3 G697C): 7% | inhibition at 1 µM (GRK1): 1% | inhibition at 1 µM (HUNK): -1% | inhibition at 1 µM (LATS2): -4% | inhibition at 1 µM (MAP2K1 (MEK1)): 1% | inhibition at 1 µM (MAP2K2 (MEK2)): -3% | inhibition at 1 µM (MAP3K2 (MEKK2)): 7% | inhibition at 1 µM [1]: 1% | inhibition at 1 µM (MAP4K3 (GLK)): 1% | inhibition at 1 µM (MLK4): 8% | inhibition at 1 µM (MYLK (MLCK)): 4% | inhibition at 1 µM (PLK4): 6% | inhibition at 1 µM (PRKACB (PRKAC beta)): 12% | inhibition at 1 µM (SLK): -1% | inhibition at 1 µM (STK32B (YANK2)): 0% | inhibition at 1 µM (STK38L (NDR2)): -7% | inhibition at 1 µM (ULK2): 2% | inhibition at 1 µM (ULK3): 8% | inhibition at 1 µM (VRK2): -4% | inhibition at 1 µM (WNK1): 4%
